According to ChEMBL document CHEMBL1201862, “PubChem BioAssay data set” (2004):
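A five-concentration, 48-hour dose response in 96-well plates underlies each endpoint, interpolated linearly between surrounding concentrations. At the GI50, growth is halved.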 The source made the active and inactive calls. Cut-off read from the data, not from the text of the source: active = GI50 up to about 1.1 µM and inactive = higher. Where a SMILES comes first, the peptide text is derived from it. [ ]: non-standard residue; d: D form. The star is where a group is joined. Phe(2-OMe) = COc1ccccc1C[CH](N)C(=O)O; Cbz = O=C(OCc1ccccc1)*; OBn = c1ccc(CO*)cc1

What was measured:
Assay in all cases: growth of human tumour cells (NCI), 48 h
786-0 = test system: 786-0
A498 = test system: A498
CCRF-CEM = test system: CCRF-CEM
DU-145 = test system: DU-145
HOP-62 = test system: HOP-62
HOP-92 = test system: HOP-92
Hs-578T = test system: Hs-578T
MDA-MB-231 = test system: MDA-MB-231
NCI-H226 = test system: NCI-H226
OVCAR-3 = test system: OVCAR-3
OVCAR-4 = test system: OVCAR-4
SF-268 = test system: SF-268
SK-MEL-28 = test system: SK-MEL-28
SN12C = test system: SN12C
SW-620 = test system: SW-620
HCC 2998 = test system: HCC 2998
KM12 = test system: KM12
MOLT-4 = test system: MOLT-4
SF-295 = test system: SF-295
SR = test system: SR

SMILES | GI50 (786-0) | GI50 (A498) | GI50 (CCRF-CEM) | GI50 (DU-145) | GI50 (HOP-62) | GI50 (HOP-92) | GI50 (Hs-578T) | GI50 (MDA-MB-231) | GI50 (NCI-H226) | GI50 (OVCAR-3) | GI50 (OVCAR-4) | GI50 (SF-268) | GI50 (SK-MEL-28) | GI50 (SN12C) | GI50 (SW-620) | GI50 (HCC 2998) | GI50 (KM12) | GI50 (MOLT-4) | GI50 (SF-295) | GI50 (SR)
COc1ccc(/C=C2\N=C(SC)N(C)C2=O)cc1 | 68.7 µM (inactive) | 37.8 µM (inactive) | > 100 µM (inactive) | > 100 µM (inactive) | 96.8 µM (inactive) | > 100 µM (inactive) | 22.8 µM (inactive) | 41.2 µM (inactive) | 47.3 µM (inactive) | 46.1 µM (inactive) | 39.6 µM (inactive) | 28.1 µM (inactive) | > 100 µM (inactive) | 71.6 µM (inactive) | 80.2 µM (inactive) | – | – | – | – | –
O=C1C2CC=CCC2C(=O)N1n1c(-c2ccccc2)n[nH]c1=O (configuration not stated) | > 100 µM (inactive) | > 100 µM (inactive) | > 100 µM (inactive) | – | > 100 µM (inactive) | > 100 µM (inactive) | > 100 µM (inactive) | > 100 µM (inactive) | > 100 µM (inactive) | > 100 µM (inactive) | > 100 µM (inactive) | > 100 µM (inactive) | – | > 100 µM (inactive) | > 100 µM (inactive) | > 100 µM (inactive) | > 100 µM (inactive) | > 100 µM (inactive) | > 100 µM (inactive) | > 100 µM (inactive)
O=C(Nc1ccccc1[N+](=O)[O-])/C(=N/Nc1cccc(Cl)c1)c1c(O)c2ccccc2oc1=O | > 100 µM (inactive) | > 100 µM (inactive) | 14.4 µM (inactive) | – | – | 23.6 µM (inactive) | – | – | > 100 µM (inactive) | 35.4 µM (inactive) | > 100 µM (inactive) | 28.9 µM (inactive) | > 100 µM (inactive) | – | 40.9 µM (inactive) | 84.1 µM (inactive) | > 100 µM (inactive) | 48 µM (inactive) | > 100 µM (inactive) | 0.0357 µM (active)
COC(=O)OCC1OC(N2C(=O)NC(=O)C(I)C2N=[N+]=[N-])CC1OC(=O)OC (configuration not stated) | > 100 µM (inactive) | – | > 100 µM (inactive) | – | > 100 µM (inactive) | > 100 µM (inactive) | – | – | > 100 µM (inactive) | > 100 µM (inactive) | > 100 µM (inactive) | > 100 µM (inactive) | > 100 µM (inactive) | > 100 µM (inactive) | > 100 µM (inactive) | > 100 µM (inactive) | > 100 µM (inactive) | > 100 µM (inactive) | > 100 µM (inactive) | > 100 µM (inactive)
COC(=O)C1=CN(C2CCCCC2)C2(c3ccccc3)c3ccccc3C(=O)OC(=O)C12 (configuration not stated) | > 100 µM (inactive) | > 100 µM (inactive) | > 100 µM (inactive) | > 100 µM (inactive) | 90.8 µM (inactive) | 39 µM (inactive) | – | 34.7 µM (inactive) | > 100 µM (inactive) | > 100 µM (inactive) | > 100 µM (inactive) | > 100 µM (inactive) | > 100 µM (inactive) | > 100 µM (inactive) | > 100 µM (inactive) | 27 µM (inactive) | > 100 µM (inactive) | 10.6 µM (inactive) | > 100 µM (inactive) | –
O=C1CSc2ccncc2N1 | > 100 µM (inactive) | > 100 µM (inactive) | > 100 µM (inactive) | – | > 100 µM (inactive) | – | – | – | > 100 µM (inactive) | > 100 µM (inactive) | > 100 µM (inactive) | > 100 µM (inactive) | > 100 µM (inactive) | > 100 µM (inactive) | > 100 µM (inactive) | > 100 µM (inactive) | – | > 100 µM (inactive) | > 100 µM (inactive) | > 100 µM (inactive)
CCN(CC)CCCC(C)NC(=O)c1cc(-c2nccn2C)nc2ccc(C)cc12 (configuration not stated) | > 100 µM (inactive) | > 100 µM (inactive) | – | > 100 µM (inactive) | > 100 µM (inactive) | > 100 µM (inactive) | – | > 100 µM (inactive) | > 100 µM (inactive) | – | 67.5 µM (inactive) | > 100 µM (inactive) | > 100 µM (inactive) | > 10 µM (inactive) | > 100 µM (inactive) | > 100 µM (inactive) | > 100 µM (inactive) | > 10 µM (inactive) | – | < 0.01 µM (active)
CC(C)(C)c1cc(C(O)(C(F)(F)F)C(F)(F)F)c2c(c1)C(C(F)(F)F)(C(F)(F)F)OC(C(C)(C)C)N2 (configuration not stated) | 3.24 µM (inactive) | – | – | – | – | < 0.01 µM (active) | – | – | 2.7 µM (inactive) | 2.58 µM (inactive) | 6.28 µM (inactive) | – | 5.16 µM (inactive) | 3.3 µM (inactive) | 3.21 µM (inactive) | 3.88 µM (inactive) | 3.65 µM (inactive) | 1.63 µM (inactive) | 2.63 µM (inactive) | 2.24 µM (inactive)
CCOC(=O)c1sc2c(C(=O)OCC)n3cc(C)cc(C)c3c2c1O | > 100 µM (inactive) | – | > 100 µM (inactive) | – | – | 76.4 µM (inactive) | – | – | > 100 µM (inactive) | 63.2 µM (inactive) | > 100 µM (inactive) | > 100 µM (inactive) | > 100 µM (inactive) | > 100 µM (inactive) | > 100 µM (inactive) | > 100 µM (inactive) | > 100 µM (inactive) | > 100 µM (inactive) | > 100 µM (inactive) | > 100 µM (inactive)
COC(=O)C(=O)C(C(=O)C=C(C)C)C(=O)C(=O)Nc1ccc(C)cc1C (configuration not stated) | > 100 µM (inactive) | > 100 µM (inactive) | > 100 µM (inactive) | – | > 100 µM (inactive) | – | – | – | > 100 µM (inactive) | > 100 µM (inactive) | > 100 µM (inactive) | > 100 µM (inactive) | > 100 µM (inactive) | > 100 µM (inactive) | > 100 µM (inactive) | > 100 µM (inactive) | > 100 µM (inactive) | > 100 µM (inactive) | > 100 µM (inactive) | > 100 µM (inactive)
CC1CC[P+](c2ccccc2)(c2ccccc2)CC1 | > 100 µM (inactive) | > 100 µM (inactive) | 67.6 µM (inactive) | – | > 100 µM (inactive) | – | – | – | > 100 µM (inactive) | 46.2 µM (inactive) | – | – | > 100 µM (inactive) | > 100 µM (inactive) | > 100 µM (inactive) | 20.8 µM (inactive) | 92.5 µM (inactive) | > 100 µM (inactive) | > 100 µM (inactive) | 55.5 µM (inactive)
CC/C(=N\NS(=O)(=O)c1ccccc1)c1ccccc1 | > 100 µM (inactive) | > 100 µM (inactive) | > 100 µM (inactive) | – | > 100 µM (inactive) | > 100 µM (inactive) | – | – | > 100 µM (inactive) | > 100 µM (inactive) | > 100 µM (inactive) | > 100 µM (inactive) | > 100 µM (inactive) | > 100 µM (inactive) | > 100 µM (inactive) | > 100 µM (inactive) | > 100 µM (inactive) | > 100 µM (inactive) | > 100 µM (inactive) | > 100 µM (inactive)
COc1cc2c(oc(=O)c3c4oc([Si](C)(C)C)cc4cc(OC)c23)c2cccc(O)c12 | > 100 µM (inactive) | > 100 µM (inactive) | > 100 µM (inactive) | – | > 100 µM (inactive) | > 100 µM (inactive) | – | – | > 100 µM (inactive) | > 100 µM (inactive) | > 100 µM (inactive) | > 100 µM (inactive) | > 100 µM (inactive) | > 100 µM (inactive) | > 100 µM (inactive) | > 100 µM (inactive) | > 100 µM (inactive) | > 100 µM (inactive) | > 100 µM (inactive) | > 100 µM (inactive)
C=C(C)CCN(C(=O)OC(C)(C)C)c1cc(C(C)C)co1 | > 100 µM (inactive) | > 100 µM (inactive) | 25.6 µM (inactive) | 45 µM (inactive) | > 100 µM (inactive) | 11.4 µM (inactive) | – | > 100 µM (inactive) | 57.7 µM (inactive) | 40.5 µM (inactive) | 59.2 µM (inactive) | 0.344 µM (active) | > 100 µM (inactive) | > 100 µM (inactive) | 56 µM (inactive) | 52 µM (inactive) | 64.3 µM (inactive) | 30.3 µM (inactive) | 51.4 µM (inactive) | 33.5 µM (inactive)
COc1cc2[nH]c3c(c2cc1OC)CCN[C@]31CC[C@]2(CC3c4c(cc(OC)c(O)c42)CCN3C)C[C@H]1OC (some centres not stated) | 15.7 µM (inactive) | 24.8 µM (inactive) | 10.8 µM (inactive) | – | 21.8 µM (inactive) | 25.8 µM (inactive) | – | – | 45.5 µM (inactive) | 21.2 µM (inactive) | 23.8 µM (inactive) | 25.5 µM (inactive) | 20.2 µM (inactive) | 21 µM (inactive) | 22.3 µM (inactive) | 15.2 µM (inactive) | 17.7 µM (inactive) | 12.9 µM (inactive) | 20.5 µM (inactive) | 15.8 µM (inactive)
CNn1c(-c2ccc(C)cc2)n[nH]c1=O | > 100 µM (inactive) | > 100 µM (inactive) | 92 µM (inactive) | – | > 100 µM (inactive) | > 100 µM (inactive) | > 100 µM (inactive) | > 100 µM (inactive) | > 100 µM (inactive) | > 100 µM (inactive) | > 100 µM (inactive) | > 100 µM (inactive) | – | > 100 µM (inactive) | > 100 µM (inactive) | > 100 µM (inactive) | > 100 µM (inactive) | > 100 µM (inactive) | > 100 µM (inactive) | 68.5 µM (inactive)
COC(=O)C(Cc1ccccc1OC)NC(=O)C(CC(=O)OCc1ccccc1)NC(=O)OCc1ccccc1 (configuration not stated) (Cbz-Asp(OBn)-[Phe(2-OMe)]-OMe; configuration not given here) | > 100 µM (inactive) | 88.1 µM (inactive) | 38 µM (inactive) | – | > 100 µM (inactive) | > 100 µM (inactive) | > 100 µM (inactive) | – | > 100 µM (inactive) | – | – | – | 38.6 µM (inactive) | – | > 100 µM (inactive) | > 100 µM (inactive) | > 100 µM (inactive) | 33.7 µM (inactive) | – | 27.9 µM (inactive)
